Patent US7314959B2, “Amino thiol compounds and compositions for use in conjunction with cancer therapy” (Wisconsin Alumni Research Foundation, priority 2003, dated 2008)
Where two headings read alike, the source gives them in different places.

Experiments:
[1] = test system: p21 protein in 23SK human skin cells; assay: p21 induction by western analysis; type: cell-based; settings: 23SK cells, 30 hr exposure
Description: FIGS. 3A and 3B illustrate the level of induced p21 protein seen in diploid human fibroblasts after a 30 hr exposure to each of the indicated chemoprotective polyamines. […] In these experiments, the 23SK human skin cells were exposed for 30 hr to an “IC80” dose of each of the indicated chemoprotective polyamines and then lysed. Cell extracts were then prepared in order to measure p21 levels by western analysis (FIG. 3A).
FIG. 3 illustrates that chemoprotective polyamines are able to induce expression of the negative cell cycle regulatory protein, p21, after exposing the human skin cells to the polyamine molecules. […] In these experiments, the 23SK human skin cells were exposed for 30 hr to an “IC80” dose of each of the indicated chemoprotective polyamines and then lysed. Cell extracts were then prepared in order to measure p21 levels by western analysis (FIG. 3A). Although the ability of modified polyamines to induce p21 is known in the literature (Kramer, D. et al., Cancer Res. 59:1278-1286, 1999), it is a novel aspect of this invention that those chemoprotective polyamines with longer aliphatic “arms” were better able to induce expression of p21 as shown in FIG. 4.

23SK skin cells = assay: Flow cytometry cell cycle distribution; type: cell-based, human
Excerpt: FIGS. 5A-5D are cell histograms showing the results from flow cytometry analysis of chemoprotective polyamine-treated 23SK skin cells.
In FIG. 5, cell histograms showing the results from flow cytometry analysis of chemoprotective polyamine-treated 23SK skin cells are shown. […] The transient nature of the cell cycle block induced by chemoprotective polyamines is believed to be an important aspect of their efficacy, i.e., their ability to block cell cycle progression in stem cells during the course of chemo- or radiotherapy, and the resumption of normal stem cell division after a given cancer therapy course has been completed.

cell cycle = settings: Jeitner and Renton 1996; Snyder and Grdina 2000; Kramer et al. 1997; cited from earlier work
[2] = test system: radiation-induced dermatitis on backs of rats; assay: Radiation-induced dermatitis in rat skin model; type: in vivo; settings: for protective activity against radiation-induced dermatitis: 370 mM, vehicle 50:30:20, scored 13 days later
Description: To determine efficacy of chemoprotective polyamines in preventing radiation-induced dermatitis, adult rats were topically treated with the compounds before and after radiation treatment. Rats were exposed to medically relevant levels of radiation that could induce clinical radiation dermatitis. Sprague Dawley rats (Harlan Spraque Dawley) at 4-6 weeks-old were anesthetized with sodium pentobarbital at 40 mg/kg body weight (Sigma, St. Louis, Mo.) prior to radiation exposure. A defined area (1.5×2 cm) on the backs of rats was irradiated using a Mark I, Model 30, Cs 137 irradiator (J. L. Sheppard & Associates). Before topical drug treatment or irradiation, the backs of the rats were clipped using an Oster clipper at the closest setting. The rest of the body was protected from radiation exposure using a lead shield (2.5 cm thick). A dose response study was initially performed to reproduce relevant dermatitis that matched the Grade (I-IV) scale used to score the severity of radiation-induced dermatitis in humans. The severity of the dermatitis was scored 12-13 days post-irradiation at the peak of the dermal inflammation. […] Radiation dermatitis of Grade II-III was considered most clinically relevant, so a radiation dose of 8.7 Gy was typically used in the rats. The clipped back region on the rats was treated topically with aminothiol in delivery vehicle four times in the two hours immediately preceding irradiation (at −2 hr, −1 hr, −30 min, and −10 min; irradiation was at 0 min
The polyamines or amino thiols were prepared in a delivery vehicle, consisting of ethanol:propylene glycol:water, ranging from 0:95:5 to 50:30:20 depending upon the solubility characteristics of the topical molecule, and the degree of dermal penetration desired. A vehicle composed of an emulsion formed by sonication of ‘nonionic liposomes’ and isopropyl myristate was also used (Jayaraman, S. et al., J. Pharm. Sci. 85:1082-1084, 1996). In a commonly used protocol, 220 μl of topical drug/vehicle was applied to an area ˜2 cm×3 cm on the back in the 2 hr just prior to irradiation. Rats treated with only the delivery vehicle served as controls. Twelve to thirteen days post-radiation, the rats were evaluated for dermatitis within the irradiated area. In early studies, a modified scoring scale described by Masuda K. et al., Int. J. Radiation Oncol. Biol. Phys: 12, 1645 (1986) was used, and in later studies, including those described here, a simplified scoring system was used in which the percentage of the irradiated, rectangular field covered with scrab material was estimated between 0 and 100% to provide scores on a scale between 0 and 100.
This example relates to the use of a rat skin model to evaluate the efficacy of two amino thiol compounds in preventing radiation-induced dermatitis. To test whether topically-applied aminothiols could prevent the radiodermatitis caused by external beam radiotherapy, the rodent model described in Example 3 was slightly modified. Briefly, the radiodermatitis model involved: • i) shaving the backs of 6-7 week old rats or mice; • ii) applying four topical doses of aminothiol in a delivery vehicle composed of ethanol:propylene glycol (PG):water in the 2 hr prior to irradiation; • iii) irradiating a small, 3 cm^2 (1.5×2 cm) area on the animal's back (through a window in a lead plate) with 8.7 Gy of γ radiation from a Cs^137 source; and • iv) scoring the severity of the dermatitis 12-13 days later, at the peak of the inflammatory skin reaction. Radiodermatitis severity was scored by estimating the percentage of the irradiated field that was covered by scrab material.
Methods: Treatments were applied as described in Example 6.

[3] = test system: primary, diploid fibroblasts isolated from human skin; assay: Growth inhibition of primary diploid human skin fibroblasts; type: cell-based; settings: 50% inhibition of human skin fibroblast growth
Description: The in vitro growth inhibitory effects of certain of the chemoprotective polyamines of the invention were measured using primary, diploid fibroblasts isolated from human skin.

DNA = DNA binding/precipitation from solution
Excerpt: The chemoprotective polyamines provided herein are also able to bind, denature and precipitate DNA from solution. As the skilled artisan will appreciate, as the concentration of polyamine is increased, there is a point where polyamine binding to helical B-DNA induces single-stranded ‘bubbles’ and conversion to other forms of DNA structure, such as Z-DNA (Feuerstein, B. et al., Nuc. Acids Res. 17:6883-6892, 1989; Basu, H. and Marton, L., Biochem. J. 244:243-246, 1987), as well as precipitating the DNA from solution.

[4] = Expt. 1, read-out: IC50 (uM), Expt. 1
[5] = Expt. 2, read-out: IC50 (uM), Expt. 2
[6] = Expt. 1, read-out: DNA Bind/ppt. IC50 (uM), Expt. 1
[7] = Expt. 2, read-out: DNA Bind/ppt. IC50 (uM), Expt. 2

SMILES | p21 fold-induction at IC80 Dose [1] [fold] | Cell Cycle Distribution At IC80 Dose (%) G1 (23SK skin cells) [%] | Cell Cycle Distribution At IC80 Dose (%) G2/M (23SK skin cells) [%] | Cell Cycle Distribution At IC80 Dose (%) S (23SK skin cells) [%] | IC50 [3, 4] [µM] | IC50 [3, 5] [µM] | IC50 (DNA; [6]) [µM] | further results
CN[C@H]1CCc2cc(OC)c(OC)c(OC)c2-c2ccc(OC)c(=O)cc21 [Colcemid, reference compound] | 3.31 | 8 | 81 | 11 | – | – | – | –
CCNCCCNCCCNCCCNCC [DENSPM] | – | – | – | – | – | – | – | cell cycle arrest reported in literature (cell cycle): G1-specific cell cycle block that was reversible
CC(C)S [Mechanism Structure 1, reference compound] | – | – | – | – | – | – | – | protective activity against radiation-induced dermatitis ([2]; 8.7 Gy): neither molecule exhibited discernable protective activity
CNCCCNC [Mechanism Structure 2, reference compound] | – | – | – | – | – | – | – | protective activity against radiation-induced dermatitis ([2]; 8.7 Gy): neither molecule exhibited discernable protective activity
CCNCCCCNCCCCNCC=C(CNCC)CNCCCCNCCCCNCC [PrC-111] | 2.22 | 60 | 14 | 25 | 980 | 180 | 88 | –
CCNCCCCNCCCCNCCCCNCC=C(CNCC)CNCCCCNCCCCNCCCCNCC [PrC-112] | 2.45 | 61 | 16 | 23 | 2.53 | – | 93 | –
CCNCCCCNCCCCNCCCCNCCCCNCC=C(CNCC)CNCCCCNCCCCNCCCCNCCCCNCC [PrC-113] | 3.21 | 77 | 14 | 8 | 0.33 | 0.21 | 35 | –
CCNCCCCNC/C=C(/CS)CNCCCCNCC [PrC-114] | – | – | – | – | 850 | 240 | 94 | –
CCNCCCCNCCCCNC/C=C(/CS)CNCCCCNCCCCNCC [PrC-115] | – | – | – | – | 4100 | 1090 | 37 | IC50 (DNA; [7]): 83 µM
CCNCCCCNCCCCNCCCCNC/C=C(/CS)CNCCCCNCCCCNCCCCNCC [PrC-116] | 2.32 | 66 | 23 | 11 | 5.8 | – | 82 | IC50 (DNA; [7]): 63 µM
CCNCCCCNCCCCNCCCCNCCCCNC/C=C(/CS)CNCCCCNCCCCNCCCCNCCCCNCC [PrC-117] | ~3.0 | 86 | 3 | 11 | 0.32 | 0.24 | 58 | IC50 (DNA; [7]): 57 µM; distribution within cell cycle compartments after drug removal (23SK skin cells; 72 hr treatment, then 48 hr in drug-free medium (FIG. 5D)): basically returned to that seen in cells previously untreated; cells in G1 compartment (23SK skin cells; treated 72 hr (FIG. 5C)): 86.23%; cells in S+G2 compartments (23SK skin cells; treated 72 hr (FIG. 5C)): 13.77%
CCNCCCCNCCCCNCC=C(CO)CNCCCCNCCCCNCC [PrC-118] | – | – | – | – | 78 | – | – | –
CCNCCCCNCCCCNCC=C(CNC)CNCCCCNCCCCNCC [PrC-119] | 1.80 | – | – | – | 470 | 202 | 89 | –
CCNCCCCNCCCCNCCCCNCC=C(CS)CNCCCCNCCCCNCCCCNCC [PrC-123] | 2.22 | 68 | 21 | 10 | – | – | 131 | IC50 (DNA; [7]): 117 µM
NCC(CN)CS [PrC-211, 3-amino-2-aminomethyl-propane-1-thiol] | – | – | – | – | – | – | – | Dermatitis Score (% of irradiated field free of scab material) ([2]; 1400 mM PrC-211, vehicle 0:95:5 (ditto mark), cage 488): 60 ± 12%; concentration of topical aminothiol alone conferring complete protection against radiodermatitis ([2]; aminothiol alone, without epinephrine, 8.7 Gy): ~2200 mM
NCCCNCCCCNCCCN [Spermine, spermine, reference compound] | – | – | – | – | – | – | 2600 | IC50 for DNA binding/precipitation relative to most chemoprotective polyamines (DNA; spermine versus chemoprotective polyamines of Table 2): ~1,000 fold
